In article PMC12196455, “Effect of Tegoprazan on Tacrolimus and Mycophenolate Levels in Kidney Transplant Recipients: A Randomized Controlled Study Using a Smart Trial Platform” (Pharmaceuticals, 2025):

What was measured:
[1] = Mycophenolate (mycophenolic acid) trough level (12 h post-dose, PETINIA immunoassay) in the randomized trial of tegoprazan vs pantoprazole; assay type: in vivo, human (kidney transplant recipients); conditions: 12-week follow-up in KTRs; result in words
From the text: (§1) This study was a prospective, open-label, randomized controlled trial conducted on KTRs receiving tacrolimus, mycophenolate, and steroids. This study was registered at the Clinical Research Information Service (CRIS), Republic of Korea (Registration No. KCT 0010481, registration date: 20 May 2025). Data analysis took place at Kyungpook National University Hospital, Republic of Korea, from August 2022 to May 2023. The trial adhered to the approval guidelines of the Institutional Review Board of Kyungpook National University Hospital (IRB No. 2022-02-013, approval date: 31 March 2022).
(§2) Patients were randomly assigned to either the P-CAB (tegoprazan 50 mg) group or the PPI (pantoprazole 20 mg) group. Enrolled KTRs were scheduled for four visits at baseline, 4, 8, and 12 weeks post-randomization. The dosage of immunosuppressants remained unchanged throughout the 12-week study period. Blood tests, including measurements of immunosuppressant trough levels, serum creatinine levels, estimated glomerular filtration rate (eGFR), and vital signs, were conducted at each visit.
(§3) The primary outcome was to compare changes in drug concentrations of tacrolimus and mycophenolate following the administration of tegoprazan in KTRs.
(§4) Trough levels of tacrolimus and mycophenolate were measured at 12 h post-dose, following standard clinical practice for therapeutic drug monitoring in transplant recipients. Blood samples were collected at scheduled morning visits, and the 12 h interval was confirmed using electronic pillbox adherence data or patient interviews. Tacrolimus concentrations were measured using the Dimension® TAC Flex® reagent cartridge (Siemens Healthcare Diagnostics Inc., Newark, NJ, USA) on the Siemens Dimension® Integrated Chemistry System, employing a homogeneous chemiluminescent immunoassay (CLIA) method. Mycophenolic acid concentrations were measured using the Dimension® MPA Flex® reagent cartridge (Siemens Healthcare Diagnostics Inc., Newark, USA) on the same system, based on a particle-enhanced turbidimetric inhibition immunoassay (PETINIA) method. All assays were conducted in the Department of Laboratory Medicine at the study hospital.

[2] = Tacrolimus blood trough level (12 h post-dose, chemiluminescent immunoassay) in the randomized trial of tegoprazan vs pantoprazole; assay type: in vivo, human (kidney transplant recipients); conditions: 12-week follow-up in KTRs; result in words
From the text: as §1, §2, §3, §4

[3] = Transplant outcomes (eGFR, de novo DSA, BPAR, allograft loss); assay type: in vivo, human (kidney transplant recipients); conditions: for eGFR: mean ± SD
Protocol: Patients were randomly assigned to either the P-CAB (tegoprazan 50 mg) group or the PPI (pantoprazole 20 mg) group. Enrolled KTRs were scheduled for four visits at baseline, 4, 8, and 12 weeks post-randomization. The dosage of immunosuppressants remained unchanged throughout the 12-week study period. Blood tests, including measurements of immunosuppressant trough levels, serum creatinine levels, estimated glomerular filtration rate (eGFR), and vital signs, were conducted at each visit. The collected data included patient demographics such as gender, age, height, weight, blood tacrolimus, mycophenolate concentrations, kidney function, liver function tests, allograft loss, and acute rejection episodes. We collected DSA information. DSA was identified using the Luminex single-antigen assay (LSA). […] The secondary outcome included evaluating transplant outcomes and GI symptoms using questionnaires. The transplant outcomes assessed were changes in eGFR, biopsy-proven acute rejection (BPAR), allograft loss, and de novo DSA during the study period. De novo DSA was defined as the new appearance of antibodies against mismatched donor human leukocyte antigen (HLA) not present at baseline.

[4] = design: method as in PMID 34246485; conditions: result in words; cited from earlier work
Adverse event monitoring = assay type: in vivo, human (kidney transplant recipients); conditions: 12 weeks
Protocol: Safety evaluations were conducted through comprehensive monitoring, including physical examinations, clinical laboratory tests, vital signs, and the documentation of adverse events (AEs). Participants were encouraged to voluntarily report AEs regularly throughout the study.

[5] = GI symptom questionnaires (GERD-HRQL, RDQ) via electronic diary app; assay type: in vivo, human (kidney transplant recipients); design: key to GERD-HRQL score: sum of 10 items each scored 0-5; higher = poorer quality of life; conditions: mean ± SD
Protocol: Changes in GI symptoms were measured and recorded using a self-developed electronic diary app installed on participants’ mobile phones. This app facilitated the assessment of GI symptoms through the Gastroesophageal Reflux Disease–Health-Related Quality of Life (GERD-HRQL) and Reflux Disease Questionnaire (RDQ). The GERD-HRQL scale comprises 10 items, addressing both GI symptoms and the patient’s overall condition. Each item is scored on a scale from 0 to 5, with higher scores indicating a poorer quality of life. The RDQ is a 6-item self-administered questionnaire designed to evaluate the severity and frequency of heartburn sensation, gastric acid regurgitation, and dyspepsia.
The secondary outcome included evaluating transplant outcomes and GI symptoms using questionnaires. The transplant outcomes assessed were changes in eGFR, biopsy-proven acute rejection (BPAR), allograft loss, and de novo DSA during the study period. De novo DSA was defined as the new appearance of antibodies against mismatched donor human leukocyte antigen (HLA) not present at baseline.

[6] = during the 12-week study period

Cc1nc2cc(C(=O)N(C)C)cc(O[C@H]3CCOc4cc(F)cc(F)c43)c2[nH]1 [P-CAB, tegoprazan]
Effect on blood trough level of mycophenolate [1]: does not alter
Effect on blood trough level of tacrolimus [2]: does not alter
eGFR ([3]; Baseline): 62.8 ± 17.1 mL/min/1.73 m^2
eGFR ([3]; Week 4): 61.8 ± 13.0 mL/min/1.73 m^2
eGFR ([3]; Week 8): 60.6 ± 12.8 mL/min/1.73 m^2
eGFR ([3]; Week 12): 63.5 ± 16.5 mL/min/1.73 m^2
Allograft Loss [3, 6]: 0 number
BPAR [3, 6]: 0 number
Effect of food intake on pharmacokinetic and pharmacodynamic properties [4]: unaffected by food intake
AE: Abdominal discomfort (Adverse event monitoring): 3 (11.5) number (%)
AE: Arthralgia (Adverse event monitoring): 1 (3.8) number (%)
AE: Constipation (Adverse event monitoring): 2 (7.7) number (%)
AE: Diarrhea (Adverse event monitoring): 5 (19.2) number (%)
AE: Headache (Adverse event monitoring): 0 (0.0) number (%)
AE: Hypertension (Adverse event monitoring): 4 (15.4) number (%)
AE: Hypoglycemia (Adverse event monitoring): 1 (3.8) number (%)
AE: Myalgia (Adverse event monitoring): 0 (0.0) number (%)
AE: Nausea, vomiting (Adverse event monitoring): 3 (11.5) number (%)
AE: Productive cough, sputum (Adverse event monitoring): 4 (15.4) number (%)
AE: Pyrexia (Adverse event monitoring): 0 (0.0) number (%)
AE: Toothache (Adverse event monitoring): 0 (0.0) number (%)
AE: Upper respiratory tract infection (Adverse event monitoring): 2 (7.7) number (%)
AE: Urinary tract infection (Adverse event monitoring): 0 (0.0) number (%)
AE: Vertigo (Adverse event monitoring): 0 (0.0) number (%)
Participants with AEs (Adverse event monitoring): 15 (57.7) number (%)
Participants with SAEs (Adverse event monitoring): 2 (7.7) number (%)
Withdrawal due to AEs (Adverse event monitoring): 0 (0.0) number (%)
Cases of serious adverse events (SAEs) (Adverse event monitoring; none related to the study drug): two
Overall incidence of AEs (Adverse event monitoring; p = 0.032 between groups): 57.7%
AE: COVID-19 (Adverse event monitoring; human, in vivo): 0 (0.0) number (%)
RDQ score ([5]; Baseline): 4.7 ± 4.7
GERD-HRQL score ([5]; Baseline, higher score = poorer quality of life): 4.9 ± 4.3
GERD-HRQL score ([5]; Week 4): 0.9 ± 1.4
RDQ score ([5]; Week 4): 1.0 ± 2.1
GERD-HRQL score ([5]; Week 8): 0.7 ± 1.0
RDQ score ([5]; Week 8): 0.6 ± 1.2
GERD-HRQL score ([5]; Week 12): 0.7 ± 1.6
RDQ score ([5]; Week 12): 0.7 ± 1.9
